Assay results from patent US20240060040A1, “METHODS FOR GENERATING INNER EAR HAIR CELLS” (Ear Science Institute Australia, priority 2020, published 2024).

What was measured:
Type in all cases: cell-based
[1] = system: Human iPSCs derived inner ear organoid; experiment: Single cell RNA sequencing and TaqMan qRT-PCR cell fate analysis; settings: for inner ear hair cell differentiation in comparison with organoids developed using the Koehler method: RNA sequencing and TaqMan qRT-PCR, FIGS. 15 and 16; for hair cell and neuronal markers by single cell RNA sequencing: organoids at Day 60, Koehler method ~57.88%
Experimental: FIG. 1 illustrates methods for generating inner ear hair cells from the induced pluripotent stem cells. The inventor added a combination of agents and inhibitors at developmental stages of the inner ear organoid culture to produce the invention.
To verify the hair cell marker genes in RNAseq transcriptome analysis, quantitative TaqMan® real-time polymerase chain reaction (qRT-PCR) in inner ear organoids was performed to identify the level of hair cell gene expression. FIG. 15 illustrates sensory hair cell-specific gene expression analysis on human iPSCs derived inner ear organoid at Day 60 by single cell RNA sequencing transcriptome analysis. FIG. 16 illustrates otic epithelial-specific gene expression in inner ear organoids at Day 20 and inner ear sensory cell-specific gene expression in inner ear organoids at Day 60 by TaqMan® qRT-PCR analyses. The presence of MyoVI represents inner ear hair cell differentiation.

[2] = system: Human iPSCs derived inner ear organoid; experiment: SOX2 and Tuj1 expression by confocal microscopy; settings: day 33-60; FIG. 18
Experimental: (§1) FIG. 1 illustrates methods for generating inner ear hair cells from the induced pluripotent stem cells. The inventor added a combination of agents and inhibitors at developmental stages of the inner ear organoid culture to produce the invention. In particular: • (i) ROCK inhibitor (Y-27632) is added to iPSC in suspension culture to promote the formation of three-dimensional embryoid bodies for about 3 days. • (ii) TGF-β inhibitor (SB-431542) is added at low concentration of FGF to drive the development of non-neural ectoderm in days 0 to 3. • (iii) The cultures are then transitioned to medium containing a high concentration of FGF and BMP inhibitor (LDN-193189) during days 4-7, which drives development of the early pre-otic placodal epithelium/pre-placodal ectoderm. • (iv) Next, Wnt agonist (CHIR-99021) is added to stimulate development of otic placode from days 8-11, otic pit formation from days 12-14 and otic prosensory vesicles from days 15-17. • (v) From days 18-32, hedgehog signalling inhibitor (CYC, GANT58 or GANT61) is added to promote the formation of sensory epithelium vesicles, and continued culture under these conditions results in the formation of sensory hair cells with neural innervation from day 33 onwards.
To identify the development of sensory hair cells of inner ear organoids at Day 33-60, the SOX2 and Tuj1 expression in organoids was observed by using confocal microscopy. The results are presented in FIG. 18, which compares organoids developed using (a) the method of Example 1 with cyclopamine (Example 2), and (b) the method of Example 1 with GANT58 (Example 3) and GANT61 (Example 4).

[3] = system: Human iPSCs derived inner ear organoid; experiment: MyosinVIIa and Tuj1 immunostaining with confocal imaging (sensory hair cells and nerve innervation); settings: for sensory hair cells and supporting cells in organoids / sensory hair cells and neuronal cells in organoids: day 33-60; for sensory hair cells and supporting cells in organoids: FIG. 14; for sensory hair cells and neuronal cells in organoids: FIG. 17; for inner ear hair cells and nerve innervation detected: inhibitor 1 μM from day 18, removed day 33, 10% Matrigel
Experimental: as §1
On day 18, the SHH inhibitor cyclopamine (CAT 239803 from Merck Millipore) was added to the cell culture to reach a final concentration of 1 μM. Matrigel® was also added to the cell culture to reach a concentration of 10%. The cells were cultured in organoid maturation medium until day 33.
On day 33, the cyclopamine was removed from the medium by washing and the droplet aggregates were remained in the cell culture containing 10% Matrigel®.
The cells were then cultured for up to 200 days in the Organoid Maturation Medium containing 10% Matrigel®. 200 μL of medium was changed daily for each well. The cells were cultured until 60-100 days, until an examination of the cell's morphology determined maturation. The viable, medium size and round 3D shape organoids with inner ear sensory cell gene expression markers were selected for analysis.
Inner ear hair cells and nerve innervation was detected after Day 35. The presence and number of inner ear hair cells was detected by immunostaining and capture with confocal imaging.
(§2) To identify the development of sensory hair cells of inner ear organoids at Day 33-60, the MyosinVIIa and Tuj1 expression in organoids was observed by using confocal microscopy. The results are presented in FIG. 14, which compares organoids developed using (a) the method of Example 1 with cyclopamine (Example 2), and (b) the method of Example 1 with GANT58 (Example 2). […] An opaque outer cell mass is indicative of complete re-organization, which was found in organoids developed using each of the SHH inhibitors. In comparison, less translucent epithelium indicative of incomplete or partial re-organization was found in organoids developed using the Koehler method. Sensory hair cell epithelium through the aggregate surface was found in organoids developed using each SHH inhibitor.
as §2, with “MyoVIIa” for “MyosinVIIa”, “17,” for “14,”, “3) and GANT61 (Example 4).” for “2).”, “inhibitors.” for “inhibitors. In comparison, less translucent epithelium indicative of incomplete or partial re-organization was found in organoids developed using the Koehler method.”

[4] = system: Human iPSCs derived inner ear organoid; experiment: ECAD and PAX2 expression by confocal microscopy (ectodermal cell fate); settings: day 20; treated aggregates, compared with Koehler method
Experimental: as §1
To identify the ectodermal cell fate of inner ear organoids at Day 20-40, the ECAD and PAX2 expression in organoids was observed by using confocal microscopy, comparing organoids developed using (a) Koehler's method without Hh inhibitors, (b) the method of Example 1 with cyclopamine as the SHH inhibitor (Example 2), (c) the method of Example 1 with GANT58 as the SHH inhibitor (Example 3) and (d) the method of Example 1 with GANT61 as the SHH inhibitor (Example 4). […] The ectodermal cell fate of the inner ear organoids developed better with the SHH inhibitors compared with the Koehler method. […] The formation of ectodermal cell appeared to be continuous, beginning on day 7 until approximately day 20-40.

c1cc(-c2sc(-c3ccncc3)c(-c3ccncc3)c2-c2ccncc2)ccn1 [GANT58]
inner ear hair cell differentiation in comparison with organoids developed using the Koehler method [1]: greater inner ear hair cell differentiation | hair cell and neuronal markers by single cell RNA sequencing [1]: ~91.88% | supporting cells and neuronal cells in organoids [2]: present | sensory hair cells and supporting cells in organoids [3]: present | sensory hair cells and neuronal cells in organoids [3]: present | inner ear hair cells and nerve innervation detected [3]: > 35 days | abundance of ECAD/PAX2 positive vesicles with a luminal diameter greater than 50 μm [4]: higher abundance

CN(C)c1ccccc1CN1CCCN(Cc2ccccc2N(C)C)C1c1ccncc1 [GANT61]
inner ear hair cell differentiation in comparison with organoids developed using the Koehler method [1]: greater inner ear hair cell differentiation | supporting cells and neuronal cells in organoids [2]: present | sensory hair cells and neuronal cells in organoids [3]: present | inner ear hair cells and nerve innervation detected [3]: > 35 days | abundance of ECAD/PAX2 positive vesicles with a luminal diameter greater than 50 μm [4]: higher abundance

CC1=C2C[C@H]3[C@@H](CC=C4C[C@@H](O)CC[C@@]43C)[C@@H]2CC[C@]12O[C@@H]1C[C@H](C)CN[C@H]1[C@H]2C [cyclopamine]
inner ear hair cell differentiation in comparison with organoids developed using the Koehler method [1]: greater inner ear hair cell differentiation | hair cell and neuronal markers by single cell RNA sequencing [1]: ~74.48% | supporting cells and neuronal cells in organoids [2]: present | sensory hair cells and supporting cells in organoids [3]: present | sensory hair cells and neuronal cells in organoids [3]: present | inner ear hair cells and nerve innervation detected [3]: > 35 days | abundance of ECAD/PAX2 positive vesicles with a luminal diameter greater than 50 μm [4]: higher abundance
